Biological target: T1, growth hormone secretagogue receptor (Homo sapiens, UniProt Q92847)
T1 construct: expressed in transfected cells; host or cells: HEK 293 (EBNA) cells, membrane preparation
Test: Saturation binding assay using T-MK0677 on transfected HEK 293 (EBNA) cell membranes
Procedure: Human Embryonic Kidney HEK 293 (EBNA) cells were grown in suspension and transfected according to the method previously described (Schlaeger and Christensen, Cytotechnology, 30, 71-83, 1999). The cells were centrifugated for 10 min at 500 rpm, washed once with PBS-0.7 mM EDTA/(4° C.) and resuspended in PBS-EDTA-PI (with Protease inhibitor cocktail), at 2 ml/g of cells. Cells were broken with Ultra Turax level green 3×15″ with 30″ breaks on ice. To remove debris the suspension was centrifugated in a Sorvall SS34 rotor for 20 min at 2,000 rpm. The supernatant was collected and centrifugated for 40 min at 20,000 rpm. The pellet was resuspended in PBS-EDTA. Receptor density was verified with saturation binding assay using T-MK 0677 to be 4.9 pmol/mg protein.
The membrane was resuspended in Binding buffer (25 mM Hepes, pH 7.4, 25 mM MgCl2, 1 mM CaCl2, 0.1% BSA, 0.03% Bacitracine (protease inhibitor)) to 0.1 to 2 μg/well. […]
A filter plate (Packard GF/B unifilter plate) was treated with 50 μL/well 0.5% polyethyleneimine (PEI) in PBS for 15 min. […] Then 50 μL of Microscint 0 were added per well and the T decay counted in a topcount from Packard Instruments.

T1 sequence (Q92847 whole entry): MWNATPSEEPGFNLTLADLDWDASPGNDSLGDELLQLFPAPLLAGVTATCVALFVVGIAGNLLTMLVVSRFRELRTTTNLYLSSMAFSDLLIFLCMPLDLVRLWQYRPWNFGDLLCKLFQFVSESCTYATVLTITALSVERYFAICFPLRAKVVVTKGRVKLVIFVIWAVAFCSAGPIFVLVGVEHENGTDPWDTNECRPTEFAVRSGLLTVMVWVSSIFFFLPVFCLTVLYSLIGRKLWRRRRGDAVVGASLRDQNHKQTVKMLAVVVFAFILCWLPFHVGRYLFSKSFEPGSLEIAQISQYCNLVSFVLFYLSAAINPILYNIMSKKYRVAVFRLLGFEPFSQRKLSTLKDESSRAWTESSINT

tris-tritiated-2-amino-N-[(1R)-2-[1,2-dihydro-1-(methylsulfonyl)spiro[3H-indole-3,4′-piperidin]-1′-yl]-2-oxo-1-[(phenylmethoxy)methyl]ethyl]-2-methyl-, monomethanesulfonate [T-MK 0677]
Receptor density: 4.9 pmol/mg protein

From US20060204436A1, “Tritiated growth hormone secretagogue mk-0677” (priority 2003, published 2006)
